We go through 2 compounds from patent publication US20250059139A1, “COMPOUNDS FOR TREATMENT OF CANCER” (THE JOHNS HOPKINS UNIVERSITY, priority 2021, published 2025).

As a reminder, the inhibition is the relative decrease from the control value, in per cent. Broadly, the IC50 is the concentration that inhibits the measured activity by half.

Several values for one entry are separate records, joined by “and”; a condition that tells them apart may be missing. Equal entries are not always repeated.

One data set relates to panel of 68 kinases. Description: Targeted kinase screen (Kinase Profiling Service, Thermo Fisher Scientific). The class given is biochemical. The settings on record: 10 μM. The method, then:
Targeted kinase screen. Inhibition of enzymatic activity of a panel of kinases in the presence of 10 μM ESATA-20 was analyzed by the Kinase Profiling Service at Thermo Fisher Scientific.

In data set [1] the target is T1, fl-R681A/R798A double mutant HDAC4 / fl-NCoR1 (Homo sapiens, UniProt P56524, R681A/R798A).
T1 construct: Full-length (fl) [A.A. 1-1082] recombinant human histone deacetylase 4 (rhHDAC4) protein; FLAG (N); GST (given as 'with or without'); host or cells: HEK293-T (HDAC4)
T1 sequence (P56524 whole entry R681A/R798A): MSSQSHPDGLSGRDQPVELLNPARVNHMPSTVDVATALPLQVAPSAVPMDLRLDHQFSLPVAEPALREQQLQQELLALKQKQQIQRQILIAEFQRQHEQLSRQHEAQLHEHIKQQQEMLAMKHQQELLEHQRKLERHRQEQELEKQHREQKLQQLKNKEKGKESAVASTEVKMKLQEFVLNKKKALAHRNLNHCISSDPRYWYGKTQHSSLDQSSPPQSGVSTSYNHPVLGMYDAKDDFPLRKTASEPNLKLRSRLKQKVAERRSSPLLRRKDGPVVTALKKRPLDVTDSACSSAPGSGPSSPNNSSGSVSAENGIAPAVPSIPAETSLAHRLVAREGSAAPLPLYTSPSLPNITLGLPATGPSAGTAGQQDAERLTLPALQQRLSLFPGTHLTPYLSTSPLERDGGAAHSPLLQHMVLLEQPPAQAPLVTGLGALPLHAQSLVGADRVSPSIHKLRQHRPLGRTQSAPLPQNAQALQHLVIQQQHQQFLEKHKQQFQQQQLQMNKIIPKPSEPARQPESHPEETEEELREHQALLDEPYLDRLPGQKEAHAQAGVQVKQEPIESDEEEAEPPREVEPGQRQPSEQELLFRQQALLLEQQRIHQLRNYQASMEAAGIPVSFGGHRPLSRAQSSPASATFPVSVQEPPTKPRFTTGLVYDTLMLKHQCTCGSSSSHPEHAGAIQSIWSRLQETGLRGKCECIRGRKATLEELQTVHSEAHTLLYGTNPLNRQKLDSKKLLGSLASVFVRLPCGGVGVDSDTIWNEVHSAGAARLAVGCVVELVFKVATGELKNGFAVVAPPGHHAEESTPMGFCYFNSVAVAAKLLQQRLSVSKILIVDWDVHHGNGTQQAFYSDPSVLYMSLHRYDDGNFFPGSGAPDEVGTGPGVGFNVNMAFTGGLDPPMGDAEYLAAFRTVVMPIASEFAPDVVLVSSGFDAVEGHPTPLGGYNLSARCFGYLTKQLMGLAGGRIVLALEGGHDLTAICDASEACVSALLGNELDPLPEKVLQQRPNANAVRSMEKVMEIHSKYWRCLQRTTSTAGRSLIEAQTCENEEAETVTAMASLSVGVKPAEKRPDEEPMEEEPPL
Briefly: SPR inhibition of fl-R681A/R798A double mutant HDAC4 binding to fl-NCoR1. The following applies: plateau at 2 μM TasQ. The procedure:
Surface Plasmon Resonance (SPR) Binding Analysis. SPR analysis was performed on the Biacore 3000™ system using CM5 sensor chips, certified buffers (HBS-P—10 mM HEPES, 0.15 M NaCl, pH 7.4, containing 0.005% v/v Surfactant P; HBS-EP-HBS-P with 3 mM EDTA) and reagents for immobilization and surface regeneration from Biacore, GE Healthcare, Uppsala Sweden. Evaluation of sensorgrams was performed using the BIA-evaluation Software version 4.1 and GraphPad Prism 4. Buffer of protein reagents were changed to HBS-P on Zeba spin desalting columns (Thermo Scientific) prior to being used in SPR analysis (Isaacs 2013).
C. Inhibition of HDAC4-NCoR1 interaction by TasQ. The interaction between HDAC4 and NCoR1 was studied either by injecting NCoR over immobilized HDAC4 or with an alternative orientation where HDAC4 was passed over a surface with covalently coupled NCoR1. Whether TasQ can inhibit the formation of the functional HDAC4-NCoR1 complex was tested by pre-incubation with NCoR1 or HDAC4.
These additional analyses again documented high-affinity binding of the wild-type fl-HDAC4 protein to fl-NCoR1 with such binding being competed by pre-incubation with TasQ in solution (FIG. 21).

A further data set deals with solid malignances. The following applies: cited from earlier work.
For data set [2] the following is noted: cited from earlier work.
The test system of data set [3] is human prostate cancer cell lines. The settings on record: optimal normoxic, nutrient and pH culture conditions; previous studies; read-out: IC50 in vitro growth of human prostate cancer cell lines; cited from earlier work.
Data set [4] deals with LNCaP and LNCaP/AHR-KD xenografts. Description: In vivo growth of LNCaP vs. LNCaP/AHR-KD xenografts in intact male hosts. Also on record: species or system human. The settings on record: daily oral 10 mg/kg/d from day 53 post-inoculation. From the text: Prostate Cancer Models. The source, history, and characteristics of the human prostate cancer cell lines and PDXs used, as well as cell culture conditions for their in vitro maintenance and the in vivo protocol for xenograft growth in triple immune-deficient NSG (i.e. NOD.Cg-PrkdcScidIl2rgtmlWji/Szj), adult (>8 week old) male mice obtained from the Sidney Kimmel Comprehensive Cancer Center (SKCCC) Animal Core Facility are described previously (Isaacs 2013; Brennen et al. JCI Insight. 2021, 6(8):e146827; Zhu et al. Oncogene 2020, 39(45): 6935-6949). […] In vitro growth curves were determined as described (Isaacs 2013). In vivo growth response to oral daily TasQ (10 mg/kg/d) of TRAMP-C2 mouse prostate cancers was evaluated in C57BL/6J syngeneic wild type vs. NOX-2 vs. iNOS null male mice obtained from Jackson Laboratory (Bar Harbor, ME). Growth response to oral daily TasQ (10 mg/kg/d) of TRAMP-C2 and B6CaP mouse prostate cancers was also evaluated in S100A9 null C57BL′6J male mice obtained from Dmitry Gabrilovich (Wistar Institute). […] In vitro growth curves were determined as described (Isaacs 2013). Growth response to daily oral TasQ vs. ESATA-20 (both at 10 mg/kg/d) of Myc-CaP-CR mouse prostate cancer was evaluated in syngeneic FVB/NJ castrate male mice from Jackson Laboratory. […]

With `COc1cccc2c1c(O)c(C(=O)N(c1ccc(C(F)(F)F)cc1)C1CCCCC1)c(=O)n2C` [ESATA-20], the “change in activity in any of the 68 kinases tested” value in the data set with panel of 68 kinases is under 15%.
In data set [1], `COc1cccc2c1c(O)c(C(=O)N(C)c1ccc(C(F)(F)F)cc1)c(=O)n2C` [TasQ, Tasquinimod] showed an inhibition at 2 µM of under 35%. The “fold increase in anti-tumor efficacy compared to Linomide” value in the data set with solid malignances (in vivo) was over 25 fold. For the same compound, the “fold enhanced potency in antiangiogenic and anti-metastatic ability” value in the data set on solid malignances (preclinical studies, vs. first-generation Linomide) was 30-60 fold. For the same compound, the blood concentrations maintained in data set [2] (daily oral 10 mg/kg/d) was over 1000 nM. Also, the serum nadir in data set [2] (oral 5 mg/kg/d, at 24 hrs) was 1.08 ± 0.21 µM. Also, the IC50 in data set [3] is > 50 µM and ~50 µM. Besides, in data set [4], the “growth response of LNCaP and LNCaP/AHR-KD xenografts” value is reported as “equally inhibited”.
